From EP0043274A2, “Antithrombotic treatment” (priority 1980, dated 1982)
“And” between values parts separate entries of the source, which are not always exact repeats. Identical values can stand only once.

Legend:
FIBRINOGEN = biological target: T1, FIBRINOGEN (Homo sapiens, UniProt P02671+P02675+P02679); experiment: Coagulation factor assay (Biggs): fibrinogen; format: biochemical; conditions: mean of 2 experiments; control 205
T1 construct: from tissue; host or cells: human plasma
T1 sequence (P02671 20-629 limits assumed): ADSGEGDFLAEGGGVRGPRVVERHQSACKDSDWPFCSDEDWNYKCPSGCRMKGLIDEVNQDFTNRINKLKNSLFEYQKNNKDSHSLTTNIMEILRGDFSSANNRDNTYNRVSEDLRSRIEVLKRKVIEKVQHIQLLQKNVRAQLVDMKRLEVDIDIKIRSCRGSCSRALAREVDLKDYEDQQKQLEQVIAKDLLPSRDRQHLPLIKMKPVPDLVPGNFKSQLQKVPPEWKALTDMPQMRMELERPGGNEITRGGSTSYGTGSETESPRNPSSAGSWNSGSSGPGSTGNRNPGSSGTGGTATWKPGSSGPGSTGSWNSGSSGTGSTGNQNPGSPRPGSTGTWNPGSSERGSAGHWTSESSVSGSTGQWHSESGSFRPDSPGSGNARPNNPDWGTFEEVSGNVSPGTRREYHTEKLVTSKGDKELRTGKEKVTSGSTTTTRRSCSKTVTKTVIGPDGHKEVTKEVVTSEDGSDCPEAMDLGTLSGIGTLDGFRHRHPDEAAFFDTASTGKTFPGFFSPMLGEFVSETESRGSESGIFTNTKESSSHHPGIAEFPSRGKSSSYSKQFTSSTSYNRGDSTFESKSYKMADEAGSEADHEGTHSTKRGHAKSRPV
T1 sequence (P02675 31-491): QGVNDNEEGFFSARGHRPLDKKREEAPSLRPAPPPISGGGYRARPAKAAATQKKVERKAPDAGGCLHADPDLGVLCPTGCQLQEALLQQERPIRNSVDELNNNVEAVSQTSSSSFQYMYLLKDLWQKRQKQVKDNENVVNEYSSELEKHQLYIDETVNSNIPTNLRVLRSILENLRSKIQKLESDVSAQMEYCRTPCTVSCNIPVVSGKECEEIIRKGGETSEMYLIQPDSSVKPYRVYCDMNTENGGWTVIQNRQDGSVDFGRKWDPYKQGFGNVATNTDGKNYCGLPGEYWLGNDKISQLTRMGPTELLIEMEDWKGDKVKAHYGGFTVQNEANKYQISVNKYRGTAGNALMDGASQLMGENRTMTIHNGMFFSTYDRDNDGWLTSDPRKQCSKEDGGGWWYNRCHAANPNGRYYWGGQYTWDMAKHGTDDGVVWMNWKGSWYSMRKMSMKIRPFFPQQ
T1 sequence (P02679 27-453): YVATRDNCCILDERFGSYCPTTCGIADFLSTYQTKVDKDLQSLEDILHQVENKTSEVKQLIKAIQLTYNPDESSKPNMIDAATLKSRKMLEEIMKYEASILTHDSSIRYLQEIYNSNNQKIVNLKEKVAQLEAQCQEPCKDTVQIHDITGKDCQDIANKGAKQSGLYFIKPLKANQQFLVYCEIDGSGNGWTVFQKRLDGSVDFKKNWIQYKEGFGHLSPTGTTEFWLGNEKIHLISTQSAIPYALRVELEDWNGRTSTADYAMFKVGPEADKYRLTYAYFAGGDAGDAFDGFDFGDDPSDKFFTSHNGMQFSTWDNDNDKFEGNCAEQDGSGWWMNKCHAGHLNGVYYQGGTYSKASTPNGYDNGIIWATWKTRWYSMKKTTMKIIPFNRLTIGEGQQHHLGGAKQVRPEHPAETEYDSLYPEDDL

FACTOR V = biological target: T2, FACTOR V (Homo sapiens, UniProt P12259); experiment: Coagulation factor assay (Biggs): Factor V; format: biochemical; conditions: U.S.P. grade, control 75
T2 construct: from tissue; host or cells: human plasma
T2 sequence (P12259 29-2224): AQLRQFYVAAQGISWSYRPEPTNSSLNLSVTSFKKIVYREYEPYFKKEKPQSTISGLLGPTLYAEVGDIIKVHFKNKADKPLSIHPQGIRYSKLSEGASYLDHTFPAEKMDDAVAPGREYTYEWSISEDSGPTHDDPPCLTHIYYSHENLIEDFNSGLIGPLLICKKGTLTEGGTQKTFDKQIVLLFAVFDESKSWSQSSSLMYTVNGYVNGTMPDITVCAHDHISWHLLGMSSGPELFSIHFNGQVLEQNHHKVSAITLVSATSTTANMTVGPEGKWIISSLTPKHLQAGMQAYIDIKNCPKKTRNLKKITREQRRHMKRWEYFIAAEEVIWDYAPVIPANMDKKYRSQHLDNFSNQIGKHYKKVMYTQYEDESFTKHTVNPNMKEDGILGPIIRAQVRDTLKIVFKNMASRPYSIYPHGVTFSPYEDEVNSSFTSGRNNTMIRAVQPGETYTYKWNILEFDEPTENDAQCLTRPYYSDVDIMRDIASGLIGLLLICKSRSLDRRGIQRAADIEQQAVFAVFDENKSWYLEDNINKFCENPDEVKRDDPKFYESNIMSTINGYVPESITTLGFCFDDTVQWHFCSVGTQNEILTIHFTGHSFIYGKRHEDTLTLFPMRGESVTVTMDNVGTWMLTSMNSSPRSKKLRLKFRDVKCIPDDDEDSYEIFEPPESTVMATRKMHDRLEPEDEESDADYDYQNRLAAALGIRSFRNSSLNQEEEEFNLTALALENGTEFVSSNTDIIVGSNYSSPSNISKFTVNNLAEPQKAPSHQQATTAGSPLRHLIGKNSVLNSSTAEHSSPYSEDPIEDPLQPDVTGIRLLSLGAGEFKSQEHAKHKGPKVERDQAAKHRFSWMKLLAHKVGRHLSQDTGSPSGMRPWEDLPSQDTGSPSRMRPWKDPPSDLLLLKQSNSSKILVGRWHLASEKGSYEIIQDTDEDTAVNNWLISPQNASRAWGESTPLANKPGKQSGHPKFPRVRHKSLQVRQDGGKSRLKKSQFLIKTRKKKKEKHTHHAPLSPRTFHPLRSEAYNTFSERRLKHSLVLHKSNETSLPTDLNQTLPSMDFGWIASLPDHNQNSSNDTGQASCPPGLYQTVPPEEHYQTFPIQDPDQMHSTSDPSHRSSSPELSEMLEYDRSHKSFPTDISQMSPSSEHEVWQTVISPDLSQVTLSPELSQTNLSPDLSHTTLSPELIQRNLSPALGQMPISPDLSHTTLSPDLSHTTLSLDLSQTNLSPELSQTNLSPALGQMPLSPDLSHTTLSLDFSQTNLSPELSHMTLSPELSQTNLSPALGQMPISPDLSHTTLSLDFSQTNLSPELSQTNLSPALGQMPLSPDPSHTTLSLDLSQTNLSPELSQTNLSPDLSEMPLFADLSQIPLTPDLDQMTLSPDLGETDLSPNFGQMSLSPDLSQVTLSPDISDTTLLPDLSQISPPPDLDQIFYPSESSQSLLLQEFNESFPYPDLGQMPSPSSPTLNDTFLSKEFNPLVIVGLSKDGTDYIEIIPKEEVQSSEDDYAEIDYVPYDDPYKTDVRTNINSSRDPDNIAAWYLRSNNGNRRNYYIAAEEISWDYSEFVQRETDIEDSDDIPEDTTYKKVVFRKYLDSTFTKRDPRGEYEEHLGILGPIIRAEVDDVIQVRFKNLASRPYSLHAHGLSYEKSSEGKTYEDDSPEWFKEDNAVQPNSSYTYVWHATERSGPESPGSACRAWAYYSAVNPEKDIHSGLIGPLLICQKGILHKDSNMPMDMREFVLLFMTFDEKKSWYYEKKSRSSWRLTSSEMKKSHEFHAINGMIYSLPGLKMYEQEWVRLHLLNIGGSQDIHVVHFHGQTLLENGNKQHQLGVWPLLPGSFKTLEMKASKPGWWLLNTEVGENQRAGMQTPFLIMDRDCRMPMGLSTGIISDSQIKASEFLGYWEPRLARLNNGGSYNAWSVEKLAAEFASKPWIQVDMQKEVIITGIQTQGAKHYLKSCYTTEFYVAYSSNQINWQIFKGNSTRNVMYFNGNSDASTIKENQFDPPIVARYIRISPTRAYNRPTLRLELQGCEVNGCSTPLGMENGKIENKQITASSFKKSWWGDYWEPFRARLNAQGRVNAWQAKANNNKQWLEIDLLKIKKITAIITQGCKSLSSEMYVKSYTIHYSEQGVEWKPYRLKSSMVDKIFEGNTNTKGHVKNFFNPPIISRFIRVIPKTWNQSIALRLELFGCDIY
Procedure: (§1) The effect of U.S.P. grade sodium bisulfite on blood coagulation factors is evaluated by standard procedures (Biggs) and the results are shown in Table III below.
References for PT, PTT, and assays of all the coagulation factors can be found in a standard textbook, entitled "Human Blood Coagulation, Haemostasis and Thrombosis", edited by Rosemary Biggs, published by Blackwell Scientific Publications, Oxford, England (2nd edition), pages 670-705, 1976.

human plasma = experiment: Blood coagulation evaluation by standard procedures (Biggs), overall result; format: biochemical; conditions: 5 mg/ml
Procedure: as §1
When this procedure is repeated using human plasma,
References for PT, PTT, and assays in vitro of all the coagulation factors can be found in a standard textbook, entitled "Human Blod Coagulation, Haemostatis and Thrombosis", edited by Rosemary Biggs, published by Blackwell Scientific Publications, Oxford, England (2nd edition), pages 670-705, 1976.

rat plasma = experiment: Blood coagulation tests (PT, PTT, coagulation factors) in vitro; format: biochemical
From the text: The alkali metalbisulfites, sodium and potassium, and ammonium bisulfite are found to prolong PT and PTT in a dose-related fashion.

RATS = experiment: Rats fed bait containing 0.5% sodium bisulfite; format: in vivo
From the text: Five rats, each in a separate cage, were given a bait containing 0.5 percent by weight of sodium bisulfite. The bait consisted of cracked grains (wheat, corn, millet, and corn meal). The amounts of bait eaten are summarized for an eleven day period.

[1] = Human use, oral drops with meals (case histories); format: in vivo
From the text: To evaluate the effect of sodium bisulfite in human use (this agent being known to be safe for human consumption), certain patients received this agent. The case history and observations are summarized individually below.
In each case, each patient is provided with such a bottle of Solution D, unless otherwise noted, and is instructed to dose himself (or herself, as the case may be) from the bottle so provided at the rate of seven drops to be taken orally with each of his (her) three daily meals. When the contents of one such bottle is thus so gradually consumed by an individual patient, another is provided to him (her).

platelet rich plasma = experiment: Platelet aggregation in platelet rich plasma from injected rabbit (ex vivo); conditions: injected with about 72 mg/kg of body weight; blood sample after 5 hours
Procedure: (§2) A rabbit is injected with about +72 mg/kg of body weight of triethyl amine bisulfite. After a period of 5 hours, a blood sample was withdrawn and centrifuged at 1000 r.p.m. (220 g) for 10 minutes to give a platelet rich plasma. […] It is concluded that triethyl amine bisulfite is an agent which inhibits thrombotic condition formation in vivo.
as §2, with “72” for “+72”, “sodium formaldehyde” for “triethyl amine”, “minuts” for “minutes”, “thrombus” for “thrombotic condition”

Compound: C[N+](C)(C)C [Tetramethyl-ammonium bisulfite]
- Fibrinogen (%) (FIBRINOGEN): 170%

Compound: Sodium bisulfite
- FACTOR V (%) (FACTOR V; 0.01 mg/ml): 74%
- FACTOR V (%) (FACTOR V; 0.05 mg/ml): 72%
- FACTOR V (%) (FACTOR V; 0.1 mg/ml): 80%
- FACTOR V (%) (FACTOR V; 0.5 mg/ml): 70%
- FACTOR V (%) (FACTOR V; 1.0 mg/ml): 60%
- FACTOR V (%) (FACTOR V; 5.0 mg/ml): 54%
- coagulation of human plasma (human plasma): completely disrupted
- PT and PTT (effect in words) (rat plasma; rat plasma in vitro, 0.5 mg/ml): significantly prolong
- blood coagulation factors (rat plasma; rat plasma, compared with human plasma): not as sensitive
- mortality (RATS; 2 days, rats 1 and 4): DIED
- FIRST DAY BLOOD FACTOR PT (RATS; rat 5): 27
- FIRST DAY BLOOD FACTOR PT, increase (RATS; rats 1-3): 26% increase and 24% increase and 28% increase
- Case IV: blood cholesterol value ([1]; after about 5 years of medication, before between 200 and 220 mg %): about 144 mg %
- Case IV: hypertension, arthritis, arrithmia, hemorrhoids, dispepsia, cyanotic fingers and toes, malaise, lassitude ([1]; man, Solutions A, B, C, or D orally, up to 20 drops per meal, within 2-3 months): all of the above identified conditions improved (except for diabetes)

Compound: CCN(CC)CC.O=S(O)O [TRIETHYL AMINE BISULFITE, triethyl amine bisulfite]
- aggregation of platelets in comparison with an untreated rabbit (platelet rich plasma): markedly decreased
